In patent US5036059A, “1,4-Dihydropyridine-3-carboxylate derivatives” (Nippon Shinyaku Company, Limited, priority 1984, dated 1991):

Columns and labels:
[1] = system: rats (with normal blood pressure); test: Hypotensive action, mean blood pressure of femoral artery in unanesthetized normotensive rats, oral; assay type: in vivo; details: Rattus norvegicus, read-out: % Decreases in Mean Blood Pressure [at peak effect]; for inhibition in vivo at 1 mg/kg: 1 mg/kg oral; for inhibition in vivo at 3 mg/kg: 3 mg/kg oral; for inhibition in vivo at 10 mg/kg: 10 mg/kg oral
Description: Blood pressure of femoral artery of rats (with normal blood pressure) under unanesthetized condition was measured directly using a pressure tranducer.
The present invention compounds were given orally at doses of 1, 3 and 10 mg/kg, and changes in blood pressure were continuously recorded. Percent decreases of mean blood pressure at the peak effect were calculated. The maximum changes in mean blood pressure (%) were shown as "hypotensive action" (Table 2).
Hypotensive action of diltiazem (which is a known hypotensive drug) measured by the same method at the doses of 3, 10 and 30 mg/kg were 0, 11.2 and 33.0%, respectively. Hypotensive action of the compound of Example 4 which is one of the most representative compounds of this invention was tested using spontaneously hypertensive rats and was compared with those of Nifedipine and Diltiazem hydrochloride. The method applied was that the drugs were orally given to the rats of which systolic arterial blood pressure were higher than 180 mmHg when it was measured plethysmographically using tail arteries. (Table 3)

guinea pig heart = test: Coronary vasodilating action, constant pressure perfusion of isolated guinea pig heart (Langendorff); details: Cavia porcellus, via coronary artery, read-out: Perfusion Increasing Rate; for activation at 0.001 mg: 10^-6 gram/heart; for activation at 0.0001 mg: 10^-7 gram/heart
Description: Constant pressure perfusion samples of guinea pig heart isolated by a method according to Langendorff were treated with the present invention compounds by administration via coronary artery and the effect was examined (Table 1).
With reference to coronary vasodilating action of diltiazem measured by the same method, the increasing rates in perfusion by administration of 10^-7, 10^-6 and 10^-5 gram/heart were 4, 16 and 55%, respectively.

SMILES	inhibition in vivo at 1 mg/kg [1] [%]	inhibition in vivo at 3 mg/kg [1] [%]	inhibition in vivo at 10 mg/kg [1] [%]	activation at 0.001 mg (guinea pig heart) [%]	activation at 0.0001 mg (guinea pig heart) [%]
CC1=C(C(=O)OCCN(C)Cc2ccccc2)C(c2cccc([N+](=O)[O-])c2)C(P2(=O)OCCCO2)=C(C)N1 (stereo not drawn) [Example 2, 2-(N-benzyl-N-methylamino)ethyl 2,6-dimethyl-4-(3-nitrophenyl)-5-(2-oxo-1,3,2-dioxaphosphorinan-2-yl)-1,4-dihydropyridine-3-carboxylate]	18.4	39.2	50.1	–	–
CCOC(=O)C1=C(C)NC(C)=C(P2(=O)OCCCO2)C1c1ccccc1[N+](=O)[O-] (stereo not drawn) [Example 5, Ethyl 2,6-dimethyl-4-(2-nitrophenyl)-5-(2-oxo-1,3,2-dioxaphosphorinan-2-yl)-1,4-dihydropyridine-3-carboxylate]	39.7	43.3	46.2	–	–
CC1=C(C(=O)OC(C)C)C(c2ccccc2[N+](=O)[O-])C(P2(=O)OCCCO2)=C(C)N1 (stereo not drawn) [Example 6, Isopropyl 2,6-dimethyl-4-(2-nitrophenyl)-5-(2-oxo-1,3,2-dioxaphosphorinan-2-yl)-1,4-dihydropyridine-3-carboxylate]	–	–	–	52	10
COC(=O)C1=C(C)NC(C)=C(P2(=O)OCC(C)(C)CO2)C1c1cccc([N+](=O)[O-])c1 (stereo not drawn) [Example 7, Methyl 2,6-dimethyl-5-(5,5-dimethyl-2-oxo-1,3,2-dioxaphosphorinan-2-yl)-4-(3-nitrophenyl)-1,4-dihydropyridine-3-carboxylate]	12.7	18.4	31.4	–	–
CC1=C(C(=O)OCCN(C)Cc2ccccc2)C(c2cccc([N+](=O)[O-])c2)C(P2(=O)OCC(C)(C)CO2)=C(C)N1 (stereo not drawn) [Example 9, 2-(N-Benzyl-N-methylamino)-ethyl 2,6-dimethyl-5-(5,5-dimethyl-2-oxo-1,3,2-dioxaphosphorinan-2-yl)-4-(3-nitrophenyl)-1,4-dihydropyridine-3-carboxylate]	12.7	12.9	40.4	–	–
CC1=C(C(=O)OCCN(C)C)C(c2cccc([N+](=O)[O-])c2)C(P2(=O)OCC(C)(C)CO2)=C(C)N1 (stereo not drawn) [Example 10, 2-(N,N-Dimethylamino)ethyl 2,6-dimethyl-5-(5,5-dimethyl-2-oxo-1,3,2-dioxaphosphorinan-2-yl)-4-(3-nitrophenyl)-1,4-dihydropyridine-3-carboxylate]	–	–	–	22	12
CCCOCCOC(=O)C1=C(C)NC(C)=C(P2(=O)OCC(C)(C)CO2)C1c1cccc([N+](=O)[O-])c1 (stereo not drawn) [Example 11, 2-n-Propoxyethyl 2,6-dimethyl-5-(5,5-dimethyl-2-oxo-1,3,2-dioxaphosphorinan-2-yl)-4-(3-nitrophenyl)-1,4-dihydropyridine-3-carboxylate]	–	–	–	53	11
CC1=C(C(=O)OCCOCc2ccccc2)C(c2cccc([N+](=O)[O-])c2)C(P2(=O)OCC(C)(C)CO2)=C(C)N1 (stereo not drawn) [Example 12, 2-Benzyloxyethyl 2,6-dimethyl-5-(5,5-dimethyl-2-oxo-1,3,2-dioxaphosphorinan-2-yl)-4-(3-nitrophenyl)-1,4-dihydropyridine-3-carboxylate]	–	–	–	67	14
COC(=O)C1=C(C)NC(C)=C(P2(=O)OC(C)CC(C)O2)C1c1ccccc1[N+](=O)[O-] (stereo not drawn) [Example 18, Methyl 2,6-dimethyl-5-(4,6-dimethyl-2-oxo-1,3,2-dioxaphosphorinan-2-yl)-4-(2-nitrophenyl)-1,4-dihydropyridine-3-carboxylate]	15.7	42.7	45.5	–	–
CC1=C(C(=O)OCCN(C)Cc2ccccc2)C(c2cccc([N+](=O)[O-])c2)C(P2(=O)O[C@H](C)C[C@@H](C)O2)=C(C)N1 (stereo partly drawn) [Example 20, 2-(N-Benzyl-N-methylamino)-ethyl 2,6-dimethyl-5-[4(R),6(R)-dimethyl-2-oxo-1,3,2-dioxaphosphorinan-2-yl]-4-(3-nitrophenyl)-1,4-dihydropyridine-3-carboxylate]	–	–	–	32	10
CCC1(CC)COP(=O)(C2=C(C)NC(C)=C(C(=O)OC)C2c2ccccc2[N+](=O)[O-])OC1 (stereo not drawn) [Example 24, Methyl 5-(5,5-diethyl-2-oxo-1,3,2-dioxaphosphorinan-2-yl)-2,6-dimethyl-4-(2-nitrophenyl)-1,4-dihydropyridine-3-carboxylate]	–	–	–	41	12
COC(=O)C1=C(C)NC(C)=C(P2(=O)OCC(C)CO2)C1c1cccc([N+](=O)[O-])c1 (stereo not drawn) [Example 26]	28.7	37.1	43.8	–	–
CCC1COP(=O)(C2=C(C)NC(C)=C(C(=O)OC)C2c2cccc([N+](=O)[O-])c2)OC1 (stereo not drawn) [Example 28, Methyl 5-(5-ethyl-Z-oxo-1,3,2-dioxaphosphorinan-2-yl)-2,6-dimethyl-4-(3-nitrophenyl)-1,4-dihydropyridine-3-carboxylate]	16.5	26.6	33.9	–	–
CCC1COP(=O)(C2=C(C)NC(C)=C(C(=O)OCCN(C)Cc3ccccc3)C2c2cccc([N+](=O)[O-])c2)OC1 (stereo not drawn) [Example 29, 2-(N-Benzyl-N-methylamino)-ethyl 5-(5-ethyl-2-oxo-1,3,2-dioxaphosphorinan-2-yl)-2,6-dimethyl-4-(3-nitrophenyl)-1,4-dihydropyridine-3-carboxylate]	–	–	–	59	34
CCC1COP(=O)(C2=C(C)NC(C)=C(C(=O)OC)C2c2ccccc2[N+](=O)[O-])OC1 (stereo not drawn) [Example 30, Methyl 5-(5-ethyl-2-oxo-1,3,2-dioxaphosphorinan-2-yl)-2,6-dimethyl-4-(2-nitrophenyl)-1,4-dihydropyridine-3-carboxylate]	–	–	–	26	13
COC(=O)C1=C(C)NC(C)=C(P2(=O)OCC(C(C)C)CO2)C1c1ccccc1[N+](=O)[O-] (stereo not drawn) [Example 34, Methyl 2,6-dimethyl-5-(5-isopropyl-2-oxo-1,3,2-dioxaphosphorinan-2-yl)-4-(2-nitrophenyl)-1,4-dihydropyridine-3-carboxylate]	–	–	–	38	13
CC1=C(C(=O)OCCN(C)Cc2ccccc2)C(c2cccc([N+](=O)[O-])c2)C(P2(=O)OCC3(CCC3)CO2)=C(C)N1 (stereo not drawn) [Example 37, 2-(N-Benzyl-N-methylamino)-ethyl-2,6-dimethyl-4-(3-nitrophenyl)-5-(7-oxo-6,8-dioxa-7-phosphaspiro(3,5)nonan-7-yl)-1,4-dihydropyridine-3-carboxylate]	–	–	–	26	22
CCOC(=O)C1=C(C)NC(C)=C(P2(=O)OCC3(CCC3)CO2)C1c1ccccc1[N+](=O)[O-] (stereo not drawn) [Example 39, Ethyl 2,6-dimethyl-4-(2-nitrophenyl)-5-(7-oxo-6,8-dioxa-7-phosphaspiro(3,5)nonan-7-yl)-1,4-dihydropyridine-3-carboxylate]	–	–	–	31	12
COC(=O)C1=C(C)NC(C)=C(P2(=O)OCC3(CCCCC3)CO2)C1c1cccc([N+](=O)[O-])c1 (stereo not drawn) [Example 40, Methyl 2,6-dimethyl-4-(3-nitrophenyl)-5-(3-oxo-2,4-dioxa-3-phosphoaspiro(5,5)undecan-3-yl)-1,4-dihydropyridine-3-carboxylate]	–	–	–	82	29
CCOC(=O)C1=C(C)NC(C)=C(P2(=O)OCCCO2)C1c1ccccc1C(F)(F)F (stereo not drawn) [Example 51, Ethyl 2,6-dimethyl-5-(2-oxo-1,3,2-dioxaphosphorinan-2-yl)-4-(2-trifluoromethylphenyl)-1,4-dihydropyridine-3-carboxylate]	21.1	43	45.4	–	–
CC1=C(C(=O)OCCN(C)Cc2ccccc2)C(c2ccccc2OC(F)F)C(P2(=O)OCC(C)(C)CO2)=C(C)N1 (stereo not drawn) [Example 64, 2-(N-Benzyl-N-methylamino)-ethyl 4-(2-difluoromethoxyphenyl)-2,6-dimethyl-5-(5,5-dimethyl-2-oxo-1,3,2-dioxaphosphorinan-2-yl)-1,4-dihydropyridine-3-carboxylate]	6.9	16.5	41.5	–	–
CC1=C(C(=O)OCC2CC2)C(c2ccccc2[N+](=O)[O-])C(P2(=O)OCCCO2)=C(C)N1 (stereo not drawn) [Example 68, Cyclopropylmethyl 2,6-dimethyl-4-(2-nitrophenyl)-5-(2-oxo-1,3,2-dioxaphosphorinan-2-yl)-1,4-dihydropyridine-3-carboxylate]	13	41.7	45.8	–	–
CC(=O)COC(=O)C1=C(C)NC(C)=C(P2(=O)OCCCO2)C1c1ccccc1C(F)(F)F (stereo not drawn) [Example 76, 2-Oxopropyl 2,6-dimethyl-5-(2-oxo-1,3,2-dioxaphosphorinan-2-yl)-4-(2-trifluoromethylphenyl)-1,4-dihydropyridine-3-carboxylate]	10.5	35	40.2	–	–
